Reference: US10119122B2, “Differentiation and expansion of endothelial cells from pluripotent stem cells and the in vitro formation of vasculature like structures” (Academisch Ziekenhuis Leiden, priority 2013, dated 2018)

Test system: hPSCs
Test: Monolayer endothelial differentiation of hPSCs in defined medium, flow cytometry at day 10
Assay type: cell-based, human
Settings: VEGF together with SB-431542 5 μM from day 3, versus VEGF only; average over several cell lines
Excerpt: hiPSC lines were generated from Fib or BOECs using conditional lentiviral vectors containing the four transcription factors oct4, c-myc, Klf4 and Sox2, and characterized as described previously (Dambrot et al., 2013; Freund et al., 2008; Orlova et al., manuscript in preparation). hiPSCs and hESC (line HES-NL4; (van de Stolpe et al., 2005)) were routinely maintained on growth factor reduced MATRIGEL®-(BD, 354230) coated plates in mTeSR media (StemCell Technologies, 05850) and passaged mechanically. Differentiation was induced three days after passaging colonies by replacing mTeSR medium with the differentiation media based on BPEL (without PVA) (Ng et al., 2008) with timed addition of the following growth factors: 25 ng/ml ActivinA (Miltenyi, 130-095-547), 30 ng/ml BMP4 (Miltenyi, 130-095-549), VEGF165 (R&D Systems, 293-VE) and small molecule inhibitor CHIR99021 (Tocris, 4423). At day 3 and day 7 of differentiation, the media was refreshed with BPEL containing VEGF and 5 μM SB43152 (Tocris, 1614) only.
Cells were dissociated with TrypLE Select and washed once with the FACs buffer with the 10% FBS, followed by the single wash with the FACs buffer. […] In some experiment samples were analyzed with the MACSQuant VYB (Miltenyi). […]

`NC(=O)c1ccc(-c2nc(-c3ccc4c(c3)OCO4)c(-c3ccccn3)[nH]2)cc1` [SB431542, reference compound] was tested, and the “increase in the yield of ECs” value was 30%.
